By % inhibition is commonly meant the percentage by which the read-out fell short of the control. Higher therefore signals strong suppression. For orientation: IC50 means the concentration that inhibits the measured activity by half. A lower IC50 goes with inhibition by little substance.

The record followed here is patent publication USRE48461E1, “Modulation of androgen receptor expression” (Ionis Pharmaceuticals, Inc., priority 2012, dated 2021).

In data set [1] the test system is AR mRNA. Put plainly: Antisense inhibition of human AR in HuVEC cells, single concentration (electroporation, qRT-PCR RTS3559). It counts as cell-based. In outline:
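AR mRNA levels were measured with human primer-probe set RTS3559 and adjusted for total RNA (RIBOGREEN). Cells were HuVEC, with each antisense oligonucleotide delivered by electroporation at one concentration.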
(In general: In qPCR the cycle at which signal appears reflects the starting amount.)

Data set [2] concerns AR mRNA. Put plainly: Dose-dependent antisense inhibition of human AR in HuVEC cells (electroporation, qRT-PCR RTS3559, IC50). The following applies: HuVEC, electroporation, approximately 16 hours. In kind it is cell-based. In outline: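 HuVEC cells dosed with antisense oligonucleotides by electroporation and treated approximately 16 hours. AR mRNA quantified by real-time qPCR with primer probe set RTS3559 and normalised to total RNA by RIBOGREEN; IC50 from dose-response.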

Where [3] appears, read: Table 19, 500 nM oligonucleotide, electroporation, approximately 24 hours, relative to untreated control.

Oligonucleotides are written 5' to 3', each unit as a sugar letter and its base; * is a phosphorothioate linkage, no mark a phosphodiester; rarer units and linkages stand in square brackets, end groups in braces. Plain capitals give the bases only. k = constrained ethyl (cEt); [5mC] = 5-methylcytosine; d = 2'-deoxy (DNA)

For “583736 (antisense kT*kG*kG*dA*dT*d[5mC]*dA*d[5mC]*dT*dT*d[5mC]*dG*d[5mC]*kG*k[5mC]*kA) [compound 583736]”, the “% inhibition” value in the data set on AR mRNA [1] (500 nM ASO, ~24 h, Table 18) was 47%. For the same substance, in the data set with AR mRNA [2] (Table 30), the “percent inhibition of AR, 46.9 nM” value amounted to 21%; the “percent inhibition of AR, 187.5 nM” value turned out to be 38%; the “percent inhibition of AR, 750.0 nM” value worked out at 60%; the “percent inhibition of AR, 3000.0 nM” value amounted to 63%. In addition, inhibition in the data set with AR mRNA [2] (Table 30) was half-maximal at 510 nM (IC50).

In the case of “583738 (antisense kG*kT*kT*d[5mC]*dT*dG*dG*dA*dT*d[5mC]*dA*d[5mC]*dT*kT*k[5mC]*kG) [compound 583738]”, the “% inhibition” value in the data set on AR mRNA [1] (500 nM ASO, ~24 h, Table 18) was 36%. In the data set with AR mRNA [2] (Table 30), the “percent inhibition of AR, 46.9 nM” value was 16%; the “percent inhibition of AR, 187.5 nM” value stood at 40%; the “percent inhibition of AR, 750.0 nM” value came to 56%; the “percent inhibition of AR, 3000.0 nM” value is 71%. The substance further returned a half-maximal inhibitory concentration (IC50) in the data set with AR mRNA [2] (Table 30) of 510 nM.

On to “583745 (antisense k[5mC]*kG*k[5mC]*dT*d[5mC]*dG*d[5mC]*dG*dG*d[5mC]*d[5mC]*dT*d[5mC]*kT*kG*kG) [compound 583745]”, for which, in the data set on AR mRNA [1] (500 nM ASO, ~24 h, Table 18), the “% inhibition” value came out at 40%. For the same substance, in the data set on AR mRNA [2] (Table 30), the “percent inhibition of AR, 46.9 nM” value came out at 19%; the “percent inhibition of AR, 187.5 nM” value is recorded as 51%; the “percent inhibition of AR, 750.0 nM” value is reported as 68%; the “percent inhibition of AR, 3000.0 nM” value is recorded as 77%. In addition, the half-maximal inhibitory concentration (IC50) in the data set with AR mRNA [2] (Table 30) worked out at 270 nM.

As for “583746 (antisense kT*kG*k[5mC]*dG*d[5mC]*dT*d[5mC]*dG*d[5mC]*dG*dG*d[5mC]*d[5mC]*kT*k[5mC]*kT) [compound 583746]”, the “% inhibition” value with AR mRNA [1] (500 nM ASO, ~24 h, Table 18) was 32%. Also, in the data set with AR mRNA [2] (Table 31), the “percent inhibition of AR, 46.9 nM” value turned out to be 24%; the “percent inhibition of AR, 187.5 nM” value was 44%; the “percent inhibition of AR, 750.0 nM” value is recorded as 65%; the “percent inhibition of AR, 3000.0 nM” value is on record as 67%. Moreover, 350 nM corresponded to half-maximal inhibition in the data set with AR mRNA [2] (Table 31) (IC50).

Consider “583747 (antisense kG*k[5mC]*kT*dG*d[5mC]*dG*d[5mC]*dT*d[5mC]*dG*d[5mC]*dG*dG*k[5mC]*k[5mC]*kT) [compound 583747]”, for which, in the data set on AR mRNA [1] (500 nM ASO, ~24 h, Table 18), the “% inhibition” value came out at 35%. In addition, in the data set on AR mRNA [2] (Table 31), the “percent inhibition of AR, 46.9 nM” value was found to be 13%; the “percent inhibition of AR, 187.5 nM” value was 38%; the “percent inhibition of AR, 750.0 nM” value was determined as 50%; the “percent inhibition of AR, 3000.0 nM” value is 69%. Inhibition with AR mRNA [2] (Table 31) was half-maximal at 640 nM (IC50).

As for “583749 (antisense kA*kG*kG*dT*dG*d[5mC]*dT*dG*d[5mC]*dG*d[5mC]*dT*d[5mC]*kG*k[5mC]*kG) [compound 583749]”, in the data set with AR mRNA [1] (setting [3]), the “% inhibition” value stood at 36%. In addition, in the data set on AR mRNA [2] (Table 32), the “percent inhibition of AR, 46.9 nM” value worked out at 34%; the “percent inhibition of AR, 187.5 nM” value was found to be 40%; the “percent inhibition of AR, 750.0 nM” value is 75%; the “percent inhibition of AR, 3000.0 nM” value is given as 87%. In addition, the midpoint of inhibition with AR mRNA [2] (Table 32), the IC50, lay at 170 nM.

As for “583759 (antisense kG*k[5mC]*kT*dG*dT*dT*d[5mC]*d[5mC]*dT*d[5mC]*dA*dT*d[5mC]*k[5mC]*kA*kG) [compound 583759]”, the “% inhibition” value with AR mRNA [1] (setting [3]) was found to be 38%. In addition, in the data set with AR mRNA [2] (Table 32), the “percent inhibition of AR, 46.9 nM” value is 5%; the “percent inhibition of AR, 187.5 nM” value was 28%; the “percent inhibition of AR, 750.0 nM” value is 61%; the “percent inhibition of AR, 3000.0 nM” value is given as 67%. Half-maximal inhibition with AR mRNA [2] (Table 32) (IC50) required 630 nM.

“583787 (antisense kG*kG*kT*dG*d[5mC]*dT*dG*dG*d[5mC]*d[5mC]*dT*d[5mC]*dG*k[5mC]*kT*k[5mC]) [compound 583787]”: in the data set on AR mRNA [1] (setting [3]), the “% inhibition” value was found to be 37%. Moreover, in the data set with AR mRNA [2] (Table 32), the “percent inhibition of AR, 46.9 nM” value worked out at 15%; the “percent inhibition of AR, 187.5 nM” value worked out at 31%; the “percent inhibition of AR, 750.0 nM” value was determined as 66%; the “percent inhibition of AR, 3000.0 nM” value is given as 74%. Besides, in the data set on AR mRNA [2] (Table 32), the IC50 came to 430 nM.

Take “583789 (antisense kT*kG*k[5mC]*dA*dT*dG*dG*dT*dG*d[5mC]*dT*dG*dG*k[5mC]*k[5mC]*kT) [compound 583789]”: in the data set on AR mRNA [1] (setting [3]), the “% inhibition” value is 39%. In addition, in the data set on AR mRNA [2] (Table 31), the “percent inhibition of AR, 46.9 nM” value turned out to be 30%; the “percent inhibition of AR, 187.5 nM” value was 49%; the “percent inhibition of AR, 750.0 nM” value came to 71%; the “percent inhibition of AR, 3000.0 nM” value was found to be 85%. Further, the IC50 with AR mRNA [2] (Table 31) stood at 190 nM.

For “583790 (antisense kG*kT*kT*dG*d[5mC]*dA*dT*dG*dG*dT*dG*d[5mC]*dT*kG*kG*k[5mC]) [compound 583790]”, the “% inhibition” value in the data set on AR mRNA [1] (setting [3]) stood at 39%. Moreover, in the data set with AR mRNA [2] (Table 31), the “percent inhibition of AR, 46.9 nM” value worked out at 17%; the “percent inhibition of AR, 187.5 nM” value is 42%; the “percent inhibition of AR, 750.0 nM” value was found to be 65%; the “percent inhibition of AR, 3000.0 nM” value is given as 81%. In the data set on AR mRNA [2] (Table 31), the concentration for half-maximal inhibition (IC50) worked out at 320 nM.

Turning to “583795 (antisense kT*kG*k[5mC]*dT*dG*dT*dT*dG*d[5mC]*dT*dG*dA*dA*kG*kG*kA) [compound 583795]”, in the data set on AR mRNA [1] (setting [3]), the “% inhibition” value is 63%. In the data set with AR mRNA [2] (Table 31), the “percent inhibition of AR, 46.9 nM” value worked out at 37%; the “percent inhibition of AR, 187.5 nM” value is listed as 61%; the “percent inhibition of AR, 750.0 nM” value came to 83%; the “percent inhibition of AR, 3000.0 nM” value was 90%. Moreover, half-maximal inhibition in the data set on AR mRNA [2] (Table 31) (IC50) was put at 90 nM.

On to “583797 (antisense kT*k[5mC]*kG*dG*dA*dT*dA*d[5mC]*dT*dG*d[5mC]*dT*dT*k[5mC]*k[5mC]*kT) [compound 583797]”, for which the “% inhibition” value with AR mRNA [1] (setting [3]) is 35%. Besides, in the data set on AR mRNA [2] (Table 32), the “percent inhibition of AR, 46.9 nM” value is 21%; the “percent inhibition of AR, 187.5 nM” value is given as 50%; the “percent inhibition of AR, 750.0 nM” value amounted to 74%; the “percent inhibition of AR, 3000.0 nM” value was 82%. The substance further came in with an IC50 with AR mRNA [2] (Table 32) of 220 nM.

On to “583799 (antisense kT*kG*k[5mC]*d[5mC]*dT*dT*d[5mC]*dG*dG*dA*dT*dA*d[5mC]*kT*kG*k[5mC]) [compound 583799]”, for which the “% inhibition” value in the data set on AR mRNA [1] (setting [3]) was determined as 65%. In the data set with AR mRNA [2] (Table 31), the “percent inhibition of AR, 46.9 nM” value amounted to 29%; the “percent inhibition of AR, 187.5 nM” value was 60%; the “percent inhibition of AR, 750.0 nM” value is recorded as 76%; the “percent inhibition of AR, 3000.0 nM” value worked out at 85%. The same substance had an IC50 in the data set with AR mRNA [2] (Table 31) of 140 nM.

“583802 (antisense k[5mC]*kT*k[5mC]*dG*d[5mC]*dT*d[5mC]*dT*d[5mC]*d[5mC]*d[5mC]*dG*d[5mC]*kT*kG*k[5mC]) [compound 583802]”: the “% inhibition” value in the data set on AR mRNA [1] (setting [3]) was determined as 37%. For the same substance, in the data set on AR mRNA [2] (Table 32), the “percent inhibition of AR, 46.9 nM” value is listed as 17%; the “percent inhibition of AR, 187.5 nM” value is reported as 25%; the “percent inhibition of AR, 750.0 nM” value is on record as 47%; the “percent inhibition of AR, 3000.0 nM” value stood at 60%. Besides, 1070 nM corresponded to half-maximal inhibition with AR mRNA [2] (Table 32) (IC50).

Consider “583809 (antisense kT*kG*kT*d[5mC]*d[5mC]*dT*dT*dG*dG*dA*dG*dG*dA*kA*kG*kT) [compound 583809]”, for which, in the data set on AR mRNA [1] (setting [3]), the “% inhibition” value is on record as 45%. In the data set with AR mRNA [2] (Table 31), the “percent inhibition of AR, 46.9 nM” value is reported as 13%; the “percent inhibition of AR, 187.5 nM” value worked out at 37%; the “percent inhibition of AR, 750.0 nM” value turned out to be 68%; the “percent inhibition of AR, 3000.0 nM” value came to 81%. The substance also had a concentration for half-maximal inhibition (IC50) with AR mRNA [2] (Table 31) of 360 nM.

For the substance “583818 (antisense kT*kG*kG*dT*d[5mC]*dG*dA*dA*dG*dT*dG*d[5mC]*d[5mC]*k[5mC]*k[5mC]*k[5mC]) [compound 583818]”, the “% inhibition” value in the data set with AR mRNA [1] (setting [3]) is 42%. In addition, in the data set on AR mRNA [2] (Table 31), the “percent inhibition of AR, 46.9 nM” value stood at 9%; the “percent inhibition of AR, 187.5 nM” value came out at 46%; the “percent inhibition of AR, 750.0 nM” value is reported as 71%; the “percent inhibition of AR, 3000.0 nM” value is reported as 84%. In addition, in the data set on AR mRNA [2] (Table 31), the IC50 was determined as 310 nM.
